Data reported in the supplement of paper PMC12076712.

Key:
Experiment in all cases: pIC50, kinobeads binding competition
ACVR2B = ACVR2B (UniProt Q13705)
In short: (§1)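 Fold changes relative to vehicle, from biological duplicates, were fitted with logistic dose-response models in the R drc package to give pIC50. These fold changes came from TMT10 LC-MS/MS quantification of digested Kinobeads-bound proteins. Compound was applied at nine concentrations (top 30 μM) either to live Jurkat cells in 1:4 steps for 60 min at 37 °C before lysis, or to Jurkat lysate or a 1:1:1:1 HEK293/K-562/HepG2/placenta lysate mix in 1:5 steps for 60 min at 4 °C.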

DYRK2 = molecular target: T1, DYRK2 (UniProt Q92630)
T1 sequence (whole entry): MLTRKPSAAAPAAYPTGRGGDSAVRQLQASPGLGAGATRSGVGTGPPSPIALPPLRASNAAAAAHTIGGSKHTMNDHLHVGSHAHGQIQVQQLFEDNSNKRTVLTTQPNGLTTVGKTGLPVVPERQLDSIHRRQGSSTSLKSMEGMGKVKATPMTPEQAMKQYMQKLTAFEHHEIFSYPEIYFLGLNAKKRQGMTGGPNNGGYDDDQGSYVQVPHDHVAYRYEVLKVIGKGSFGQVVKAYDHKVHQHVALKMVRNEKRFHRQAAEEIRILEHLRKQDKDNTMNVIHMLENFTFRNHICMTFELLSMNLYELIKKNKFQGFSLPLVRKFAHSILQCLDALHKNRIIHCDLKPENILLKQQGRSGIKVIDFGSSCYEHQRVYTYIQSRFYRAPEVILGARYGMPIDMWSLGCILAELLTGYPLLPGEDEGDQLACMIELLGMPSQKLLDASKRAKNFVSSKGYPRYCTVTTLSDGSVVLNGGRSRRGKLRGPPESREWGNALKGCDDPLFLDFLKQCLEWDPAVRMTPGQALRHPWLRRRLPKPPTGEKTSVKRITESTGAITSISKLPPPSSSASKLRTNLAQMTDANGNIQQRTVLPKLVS
In short: as §1

EGFR = EGFR (UniProt P00533); details: cell material: Lysate mix
In short: as §1

EPHA3 = molecular target: T2, EPHA3 (UniProt P29320)
T2 sequence (whole entry): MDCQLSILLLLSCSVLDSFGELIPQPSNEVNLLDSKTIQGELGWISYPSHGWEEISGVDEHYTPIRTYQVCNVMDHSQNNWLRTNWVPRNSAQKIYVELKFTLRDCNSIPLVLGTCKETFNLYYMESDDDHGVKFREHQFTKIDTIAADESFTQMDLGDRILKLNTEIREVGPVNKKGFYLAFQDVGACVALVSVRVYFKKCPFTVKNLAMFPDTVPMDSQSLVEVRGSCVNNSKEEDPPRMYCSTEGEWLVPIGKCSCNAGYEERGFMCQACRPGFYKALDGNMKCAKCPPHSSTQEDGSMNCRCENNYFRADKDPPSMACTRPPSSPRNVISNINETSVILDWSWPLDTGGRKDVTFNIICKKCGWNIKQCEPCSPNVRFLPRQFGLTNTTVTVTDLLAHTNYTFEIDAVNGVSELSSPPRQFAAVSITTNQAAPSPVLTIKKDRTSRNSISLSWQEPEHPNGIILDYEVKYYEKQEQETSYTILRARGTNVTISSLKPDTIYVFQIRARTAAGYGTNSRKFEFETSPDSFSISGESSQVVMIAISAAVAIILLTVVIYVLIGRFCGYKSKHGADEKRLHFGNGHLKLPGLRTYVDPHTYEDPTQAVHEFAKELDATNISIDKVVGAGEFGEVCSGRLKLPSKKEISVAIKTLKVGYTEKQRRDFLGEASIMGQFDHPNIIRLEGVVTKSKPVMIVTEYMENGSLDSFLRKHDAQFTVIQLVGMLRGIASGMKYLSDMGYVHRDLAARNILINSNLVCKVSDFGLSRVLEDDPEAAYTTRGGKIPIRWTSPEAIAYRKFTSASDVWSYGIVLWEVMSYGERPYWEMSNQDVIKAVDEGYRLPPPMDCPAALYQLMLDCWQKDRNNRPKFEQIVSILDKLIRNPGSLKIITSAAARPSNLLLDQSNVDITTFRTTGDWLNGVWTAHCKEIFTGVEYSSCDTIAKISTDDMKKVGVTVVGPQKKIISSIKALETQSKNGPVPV
In short: as §1

HIPK2 = HIPK2 (UniProt Q9H2X6)
In short: as §1

Jak2 = Jak2 (UniProt O60674)
In short: as §1

LRRK2 = LRRK2 (UniProt Q5S007); details: cell material: Lysate mix
In short: as §1

MAST4 = MAST4 (UniProt O15021)
In short: as §1

PIM2 = PIM2 (UniProt Q9P1W9)
In short: as §1

SRC = SRC (UniProt P12931)
In short: as §1

STK33 = STK33 (UniProt Q9BYT3)
In short: as §1

TYK2 = TYK2 (UniProt P29597)
In short: as §1

UniProt P49841 = molecular target: UniProt P49841
In short: as §1

UniProt Q05397 = molecular target: UniProt Q05397
In short: as §1

UniProt Q9BQI3 = molecular target: UniProt Q9BQI3
In short: as §1

UniProt Q9Y2K2 = molecular target: UniProt Q9Y2K2
In short: as §1

Chain of PIM2 (Q9P1W9 whole entry, looked up): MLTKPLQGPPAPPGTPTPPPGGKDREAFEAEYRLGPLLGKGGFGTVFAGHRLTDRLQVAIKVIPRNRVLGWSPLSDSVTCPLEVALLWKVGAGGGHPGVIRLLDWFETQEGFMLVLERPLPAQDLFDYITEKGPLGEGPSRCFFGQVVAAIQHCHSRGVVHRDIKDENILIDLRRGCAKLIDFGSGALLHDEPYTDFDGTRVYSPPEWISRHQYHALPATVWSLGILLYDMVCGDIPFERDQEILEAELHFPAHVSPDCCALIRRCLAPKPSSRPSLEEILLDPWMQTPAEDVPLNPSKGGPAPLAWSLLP
Chain of EGFR (P00533 whole entry): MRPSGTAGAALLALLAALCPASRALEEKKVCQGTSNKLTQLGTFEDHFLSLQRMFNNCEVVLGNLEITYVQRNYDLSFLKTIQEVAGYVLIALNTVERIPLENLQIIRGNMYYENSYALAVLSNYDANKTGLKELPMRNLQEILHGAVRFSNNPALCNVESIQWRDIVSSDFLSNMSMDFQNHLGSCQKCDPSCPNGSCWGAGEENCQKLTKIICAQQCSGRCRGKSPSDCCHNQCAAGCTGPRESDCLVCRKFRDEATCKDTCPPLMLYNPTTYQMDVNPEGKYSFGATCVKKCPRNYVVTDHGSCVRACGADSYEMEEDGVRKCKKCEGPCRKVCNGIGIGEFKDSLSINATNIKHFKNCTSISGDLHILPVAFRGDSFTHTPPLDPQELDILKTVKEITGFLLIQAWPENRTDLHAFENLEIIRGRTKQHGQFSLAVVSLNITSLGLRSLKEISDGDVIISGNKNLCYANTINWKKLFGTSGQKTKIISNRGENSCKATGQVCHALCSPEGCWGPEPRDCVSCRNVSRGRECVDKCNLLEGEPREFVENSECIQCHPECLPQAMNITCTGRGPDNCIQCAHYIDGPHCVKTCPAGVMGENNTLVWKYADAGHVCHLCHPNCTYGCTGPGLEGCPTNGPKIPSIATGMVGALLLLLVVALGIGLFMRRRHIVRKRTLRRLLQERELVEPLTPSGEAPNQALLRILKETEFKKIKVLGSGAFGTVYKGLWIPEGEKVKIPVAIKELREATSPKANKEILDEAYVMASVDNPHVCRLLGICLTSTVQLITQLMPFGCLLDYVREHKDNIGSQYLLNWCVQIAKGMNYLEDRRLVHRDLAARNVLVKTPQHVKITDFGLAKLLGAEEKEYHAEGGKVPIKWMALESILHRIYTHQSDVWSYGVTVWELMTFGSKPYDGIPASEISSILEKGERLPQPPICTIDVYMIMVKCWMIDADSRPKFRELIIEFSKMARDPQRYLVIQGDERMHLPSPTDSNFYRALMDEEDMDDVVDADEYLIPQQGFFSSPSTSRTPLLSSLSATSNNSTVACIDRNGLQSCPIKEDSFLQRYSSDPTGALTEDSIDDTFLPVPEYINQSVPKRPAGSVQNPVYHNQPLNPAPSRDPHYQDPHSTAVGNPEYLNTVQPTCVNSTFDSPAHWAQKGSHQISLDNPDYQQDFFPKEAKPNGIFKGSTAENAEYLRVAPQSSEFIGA
Chain of HIPK2 (Q9H2X6 whole entry, looked up): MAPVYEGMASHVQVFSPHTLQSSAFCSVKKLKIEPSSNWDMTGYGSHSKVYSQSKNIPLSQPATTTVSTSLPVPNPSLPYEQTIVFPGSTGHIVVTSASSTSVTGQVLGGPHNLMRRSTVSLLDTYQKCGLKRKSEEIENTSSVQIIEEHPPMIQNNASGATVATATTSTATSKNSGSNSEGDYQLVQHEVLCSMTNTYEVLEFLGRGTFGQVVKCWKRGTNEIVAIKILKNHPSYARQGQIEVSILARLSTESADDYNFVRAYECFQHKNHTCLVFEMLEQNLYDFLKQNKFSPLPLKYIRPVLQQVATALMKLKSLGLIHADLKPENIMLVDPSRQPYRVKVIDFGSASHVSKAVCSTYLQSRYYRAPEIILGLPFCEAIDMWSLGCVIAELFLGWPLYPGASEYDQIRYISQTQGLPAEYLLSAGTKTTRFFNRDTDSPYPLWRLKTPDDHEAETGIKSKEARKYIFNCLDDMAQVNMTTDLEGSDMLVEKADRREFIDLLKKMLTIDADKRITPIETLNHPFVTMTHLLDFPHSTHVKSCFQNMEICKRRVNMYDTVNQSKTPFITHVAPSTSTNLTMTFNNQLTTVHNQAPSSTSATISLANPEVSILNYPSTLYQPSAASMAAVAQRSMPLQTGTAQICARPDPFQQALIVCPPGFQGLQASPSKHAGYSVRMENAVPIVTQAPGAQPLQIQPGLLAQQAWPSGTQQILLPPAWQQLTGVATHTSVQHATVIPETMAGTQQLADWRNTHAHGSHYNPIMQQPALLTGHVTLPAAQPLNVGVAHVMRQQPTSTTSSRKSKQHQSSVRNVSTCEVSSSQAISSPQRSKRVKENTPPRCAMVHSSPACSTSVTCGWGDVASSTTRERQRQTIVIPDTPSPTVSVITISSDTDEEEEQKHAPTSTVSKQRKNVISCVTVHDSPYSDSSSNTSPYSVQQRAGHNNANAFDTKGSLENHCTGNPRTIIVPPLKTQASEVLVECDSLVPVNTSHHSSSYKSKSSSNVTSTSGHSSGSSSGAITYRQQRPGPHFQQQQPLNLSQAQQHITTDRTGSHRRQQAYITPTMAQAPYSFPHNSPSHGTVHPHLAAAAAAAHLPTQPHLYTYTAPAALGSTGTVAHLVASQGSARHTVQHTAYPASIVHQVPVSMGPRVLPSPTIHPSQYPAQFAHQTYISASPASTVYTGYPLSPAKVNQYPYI
Chain of ACVR2B (Q13705 whole entry): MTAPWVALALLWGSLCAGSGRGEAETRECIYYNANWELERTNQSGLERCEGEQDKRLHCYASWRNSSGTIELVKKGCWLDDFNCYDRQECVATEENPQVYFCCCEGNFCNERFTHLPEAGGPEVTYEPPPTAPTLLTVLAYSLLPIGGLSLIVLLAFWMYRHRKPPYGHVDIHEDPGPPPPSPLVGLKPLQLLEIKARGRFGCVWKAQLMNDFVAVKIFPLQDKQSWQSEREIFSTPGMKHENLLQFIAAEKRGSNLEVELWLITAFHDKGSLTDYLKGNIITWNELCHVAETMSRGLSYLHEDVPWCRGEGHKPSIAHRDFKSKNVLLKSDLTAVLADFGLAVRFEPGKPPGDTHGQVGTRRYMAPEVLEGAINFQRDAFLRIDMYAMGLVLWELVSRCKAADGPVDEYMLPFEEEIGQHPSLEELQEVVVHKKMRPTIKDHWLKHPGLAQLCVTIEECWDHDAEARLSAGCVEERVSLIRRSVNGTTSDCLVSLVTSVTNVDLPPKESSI
Chain of SRC (P12931 whole entry, looked up): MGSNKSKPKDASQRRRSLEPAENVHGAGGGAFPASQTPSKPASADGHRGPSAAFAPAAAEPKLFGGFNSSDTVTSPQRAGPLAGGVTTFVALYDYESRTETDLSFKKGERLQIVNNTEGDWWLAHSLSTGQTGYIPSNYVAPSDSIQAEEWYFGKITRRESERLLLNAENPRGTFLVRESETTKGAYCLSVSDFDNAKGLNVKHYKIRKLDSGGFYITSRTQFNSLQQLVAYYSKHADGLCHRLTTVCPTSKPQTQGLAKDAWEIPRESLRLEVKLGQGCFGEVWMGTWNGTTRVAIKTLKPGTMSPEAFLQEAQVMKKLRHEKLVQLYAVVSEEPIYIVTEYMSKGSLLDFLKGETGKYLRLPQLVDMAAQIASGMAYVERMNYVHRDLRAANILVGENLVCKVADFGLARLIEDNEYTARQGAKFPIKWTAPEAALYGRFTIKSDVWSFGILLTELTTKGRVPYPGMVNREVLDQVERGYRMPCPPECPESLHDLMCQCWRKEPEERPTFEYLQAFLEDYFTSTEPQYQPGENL
Chain of Jak2 (O60674 whole entry): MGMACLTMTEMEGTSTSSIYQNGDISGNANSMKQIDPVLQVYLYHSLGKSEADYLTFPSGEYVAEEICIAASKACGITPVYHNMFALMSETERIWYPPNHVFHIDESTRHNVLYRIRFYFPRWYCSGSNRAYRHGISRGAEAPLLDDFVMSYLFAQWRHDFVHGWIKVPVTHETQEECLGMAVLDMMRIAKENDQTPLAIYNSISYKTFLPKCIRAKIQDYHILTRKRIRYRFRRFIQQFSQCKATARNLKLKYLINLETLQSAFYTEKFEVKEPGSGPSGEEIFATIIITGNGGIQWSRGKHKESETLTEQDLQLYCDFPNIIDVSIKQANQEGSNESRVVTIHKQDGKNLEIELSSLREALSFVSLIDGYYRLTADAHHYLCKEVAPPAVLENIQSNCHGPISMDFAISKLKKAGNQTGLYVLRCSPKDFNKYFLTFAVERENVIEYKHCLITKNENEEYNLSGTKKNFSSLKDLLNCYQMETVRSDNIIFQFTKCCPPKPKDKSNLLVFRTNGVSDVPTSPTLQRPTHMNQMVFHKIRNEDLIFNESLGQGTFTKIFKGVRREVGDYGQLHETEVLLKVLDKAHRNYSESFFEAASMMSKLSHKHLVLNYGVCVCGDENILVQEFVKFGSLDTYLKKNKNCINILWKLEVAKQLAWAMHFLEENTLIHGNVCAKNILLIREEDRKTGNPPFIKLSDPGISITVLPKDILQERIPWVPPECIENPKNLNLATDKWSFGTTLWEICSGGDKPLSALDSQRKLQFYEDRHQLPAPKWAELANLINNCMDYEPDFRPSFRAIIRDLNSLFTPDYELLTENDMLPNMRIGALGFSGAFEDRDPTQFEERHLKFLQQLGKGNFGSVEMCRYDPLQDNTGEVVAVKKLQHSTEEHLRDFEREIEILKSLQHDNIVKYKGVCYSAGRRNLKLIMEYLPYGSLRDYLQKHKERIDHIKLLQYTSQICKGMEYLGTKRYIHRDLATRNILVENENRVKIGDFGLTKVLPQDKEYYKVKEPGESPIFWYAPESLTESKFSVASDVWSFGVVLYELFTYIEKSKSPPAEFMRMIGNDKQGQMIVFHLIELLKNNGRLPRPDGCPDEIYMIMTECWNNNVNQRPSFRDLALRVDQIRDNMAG

O=C(NCCNC(=O)c1cc(Nc2cc(C3CC3)[nH]n2)nc(N2CCN(Cc3ccc(S(=O)(=O)F)cc3)CC2)n1)OC1CC/C=C/CCC1 (stereo not drawn)
pIC50 (ACVR2B; cell material: Jurkat cells): < 4.52 | pIC50 (ACVR2B; cell material: Jurkat lysate): < 4.52 | pIC50 (ACVR2B; cell material: Lysate mix): < 4.52 | pIC50 (DYRK2; cell material: Jurkat cells): < 4.52 | pIC50 (DYRK2; cell material: Jurkat lysate): < 4.52 | pIC50 (DYRK2; cell material: Lysate mix): < 4.52 | pIC50 (EGFR): < 4.52 | pIC50 (EPHA3; cell material: Jurkat cells): < 4.52 | pIC50 (EPHA3; cell material: Jurkat lysate): < 4.52 | pIC50 (EPHA3; cell material: Lysate mix): < 4.52 | pIC50 (HIPK2; cell material: Jurkat cells): 5.49 | pIC50 (HIPK2; cell material: Jurkat lysate): < 4.52 | pIC50 (HIPK2; cell material: Lysate mix): < 4.52 | pIC50 (Jak2; cell material: Jurkat lysate): < 4.52 | pIC50 (Jak2; cell material: Lysate mix): < 4.52 | pIC50 (LRRK2): < 4.52 | pIC50 (MAST4; cell material: Jurkat cells): 6.3 | pIC50 (MAST4; cell material: Jurkat lysate): 5.17 | pIC50 (MAST4; cell material: Lysate mix): 5.3 | pIC50 (PIM2; cell material: Jurkat lysate): < 4.52 | pIC50 (PIM2; cell material: Lysate mix): < 4.52 | pIC50 (SRC; cell material: Jurkat cells): 5.9 | pIC50 (SRC; cell material: Jurkat lysate): < 4.52 | pIC50 (STK33; cell material: Jurkat cells): 5.76 | pIC50 (STK33; cell material: Jurkat lysate): < 4.52 | pIC50 (STK33; cell material: Lysate mix): < 4.52 | pIC50 (TYK2; cell material: Jurkat cells): < 4.52 | pIC50 (TYK2; cell material: Jurkat lysate): < 4.52 | pIC50 (TYK2; cell material: Lysate mix): < 4.52 | pIC50 (UniProt P49841; cell material: Jurkat cells): 4.84 | pIC50 (UniProt P49841; cell material: Jurkat lysate): < 4.52 | pIC50 (UniProt P49841; cell material: Lysate mix): < 4.52 | pIC50 (UniProt Q05397; cell material: Jurkat cells): < 4.52 | pIC50 (UniProt Q05397; cell material: Jurkat lysate): < 4.52 | pIC50 (UniProt Q05397; cell material: Lysate mix): < 4.52 | pIC50 (UniProt Q9BQI3; cell material: Jurkat cells): < 4.52 | pIC50 (UniProt Q9BQI3; cell material: Jurkat lysate): < 4.52 | pIC50 (UniProt Q9BQI3; cell material: Lysate mix): < 4.52 | pIC50 (UniProt Q9Y2K2; cell material: Jurkat cells): < 4.52 | pIC50 (UniProt Q9Y2K2; cell material: Jurkat lysate): < 4.52 | pIC50 (UniProt Q9Y2K2; cell material: Lysate mix): < 4.52

Cc1cc(Nc2cc(C(=O)NCCNC(=O)OC3CC/C=C/CCC3)nc(N3CCN(Cc4ccc(S(=O)(=O)F)cc4)CC3)n2)n[nH]1 (stereo not drawn)
pIC50 (ACVR2B; cell material: Lysate mix): < 4.52 | pIC50 (DYRK2; cell material: Lysate mix): < 4.52 | pIC50 (EGFR): < 4.52 | pIC50 (EPHA3; cell material: Lysate mix): < 4.52 | pIC50 (HIPK2; cell material: Lysate mix): < 4.52 | pIC50 (Jak2; cell material: Lysate mix): < 4.52 | pIC50 (LRRK2): < 4.52 | pIC50 (MAST4; cell material: Lysate mix): 4.74 | pIC50 (PIM2; cell material: Lysate mix): < 4.52 | pIC50 (SRC; cell material: Lysate mix): 4.7 | pIC50 (STK33; cell material: Lysate mix): < 4.52 | pIC50 (TYK2; cell material: Lysate mix): < 4.52 | pIC50 (UniProt P49841; cell material: Lysate mix): < 4.52 | pIC50 (UniProt Q05397; cell material: Lysate mix): < 4.52 | pIC50 (UniProt Q9BQI3; cell material: Lysate mix): < 4.52 | pIC50 (UniProt Q9Y2K2; cell material: Lysate mix): < 4.52

CCNC(=O)c1cc(Nc2cc(C)[nH]n2)nc(N2CCN(Cc3ccc(S(=O)(=O)F)cc3)CC2)n1
pIC50 (ACVR2B; cell material: Lysate mix): < 4.52 | pIC50 (DYRK2; cell material: Lysate mix): < 4.52 | pIC50 (EGFR): 5.78 | pIC50 (EPHA3; cell material: Lysate mix): < 4.52 | pIC50 (HIPK2; cell material: Lysate mix): 4.77 | pIC50 (Jak2; cell material: Lysate mix): 4.98 | pIC50 (LRRK2): 5.28 | pIC50 (MAST4; cell material: Lysate mix): 6.4 | pIC50 (PIM2; cell material: Lysate mix): < 4.52 | pIC50 (SRC; cell material: Lysate mix): 6.61 | pIC50 (STK33; cell material: Lysate mix): < 4.52 | pIC50 (TYK2; cell material: Lysate mix): < 4.52 | pIC50 (UniProt P49841; cell material: Lysate mix): < 4.52 | pIC50 (UniProt Q05397; cell material: Lysate mix): < 4.52 | pIC50 (UniProt Q9BQI3; cell material: Lysate mix): < 4.52 | pIC50 (UniProt Q9Y2K2; cell material: Lysate mix): < 4.52
